Test results published in paper PMC5218480 (PLoS ONE, 2017).

Tested on: MV-4-11 cells
Assay: Gene expression microarray analysis (Affymetrix PrimeView) and GSEA
Format: cell-based, human
Design: RFU PODN (11730768_x_at) / Fold change /veh PODN (11730768_x_at) / RFU LINC00158 (11744669_a_at) / Fold change /veh LINC00158 (11744669_a_at) / RFU DUSP10 (11751237_a_at) / Fold change /veh DUSP10 (11751237_a_at) / RFU ID3 (11757404_x_at) / Fold change /veh ID3 (11757404_x_at) / RFU PLEKHG5 (11737974_s_at) / Fold change /veh PLEKHG5 (11737974_s_at) / RFU LRRC4B (11730491_at) / Fold change /veh LRRC4B (11730491_at) / RFU GIMAP4 (11747438_a_at) / Fold change /veh GIMAP4 (11747438_a_at) / RFU KRT8 (11758183_x_at) / Fold change /veh KRT8 (11758183_x_at) / RFU CNN1 (11734310_a_at) / Fold change /veh CNN1 (11734310_a_at) / RFU VPS37D (11726825_at) / Fold change /veh VPS37D (11726825_at) / RFU C10orf10 (11716522_x_at) / Fold change /veh C10orf10 (11716522_x_at) / RFU KIR2DL2 /// KIR2DL4 /// KIR2DL5A /// KIR2DL5B /// KIR2DS1 /// KIR2DS2 /// KIR2DS3 /// KIR2DS4 /// KIR3DL3 /// KIR3DL3 /// KIR3DS1 (11738374_at) / Fold change /veh KIR2DL2 /// KIR2DL4 /// KIR2DL5A /// KIR2DL5B /// KIR2DS1 /// KIR2DS2 /// KIR2DS3 /// KIR2DS4 /// KIR3DL3 /// KIR3DL3 /// KIR3DS1 (11738374_at) / RFU C1QL1 (11718748_at) / Fold change /veh C1QL1 (11718748_at) / RFU TMPRSS4 (11747572_a_at) / Fold change /veh TMPRSS4 (11747572_a_at) / RFU HAMP (11756126_x_at) / Fold change /veh HAMP (11756126_x_at) / RFU RNFT2 (11725882_a_at) / Fold change /veh RNFT2 (11725882_a_at) / RFU NR4A2 (11747474_a_at) / Fold change /veh NR4A2 (11747474_a_at) / RFU ABCC12 (11746883_a_at) / Fold change /veh ABCC12 (11746883_a_at) / RFU TMEM136 (11760407_x_at) / Fold change /veh TMEM136 (11760407_x_at) / RFU CLDN22 /// WWC2 (11732394_at) / Fold change /veh CLDN22 /// WWC2 (11732394_at) / RFU HLA-DPB1 (11760878_x_at) / Fold change /veh HLA-DPB1 (11760878_x_at) / RFU SPINT1 (11716480_a_at) / Fold change /veh SPINT1 (11716480_a_at) / RFU GAP43 (11754022_s_at) / Fold change /veh GAP43 (11754022_s_at) / RFU A4GNT (11735810_at) / Fold change /veh A4GNT (11735810_at) / RFU PRB3 (11715151_x_at) / Fold change /veh PRB3 (11715151_x_at) / RFU TUBB4B (11761932_at) / Fold change /veh TUBB4B (11761932_at) / RFU CAPN14 (11732068_a_at) / Fold change /veh CAPN14 (11732068_a_at) / RFU TMCC2 (11721928_a_at) / Fold change /veh TMCC2 (11721928_a_at) / RFU IRGQ (11745062_a_at) / Fold change /veh IRGQ (11745062_a_at) / RFU FAM174B (11720279_a_at) / Fold change /veh FAM174B (11720279_a_at) / RFU TMPRSS4 (11748680_a_at) / Fold change /veh TMPRSS4 (11748680_a_at) / RFU FAM212B (11763350_a_at) / Fold change /veh FAM212B (11763350_a_at) / RFU PLEKHG5 (11743358_a_at) / Fold change /veh PLEKHG5 (11743358_a_at) / RFU ZSCAN30 (11745921_a_at) / Fold change /veh ZSCAN30 (11745921_a_at) / RFU CMKLR1 (11741424_a_at) / Fold change /veh CMKLR1 (11741424_a_at) / RFU LOC101060620 /// MAPK8IP1 (11723275_at) / Fold change /veh LOC101060620 /// MAPK8IP1 (11723275_at) / RFU SPTSSB (11747773_x_at) / Fold change /veh SPTSSB (11747773_x_at) / RFU PRSS12 (11739890_at) / Fold change /veh PRSS12 (11739890_at) / RFU BIN1 (11741810_x_at) / Fold change /veh BIN1 (11741810_x_at) / RFU WNT11 (11732464_a_at) / Fold change /veh WNT11 (11732464_a_at) / RFU C10orf10 (11716521_a_at) / Fold change /veh C10orf10 (11716521_a_at) / RFU C5orf56 (11738089_at) / Fold change /veh C5orf56 (11738089_at) / RFU CYB561 (11721691_x_at) / Fold change /veh CYB561 (11721691_x_at) / RFU ANKRD19P (11752326_a_at) / Fold change /veh ANKRD19P (11752326_a_at) / RFU OR2T12 /// OR2T33 /// OR2T8 (11738714_s_at) / Fold change /veh OR2T12 /// OR2T33 /// OR2T8 (11738714_s_at) / RFU VCAN (11748164_a_at) / Fold change /veh VCAN (11748164_a_at) / RFU JSRP1 (11732532_at) / Fold change /veh JSRP1 (11732532_at) / RFU KRTAP10-11 (11738290_x_at) / Fold change /veh KRTAP10-11 (11738290_x_at) / RFU MYO3A (11730013_a_at) / Fold change /veh MYO3A (11730013_a_at) / RFU EBF3 (11725865_a_at) / Fold change /veh EBF3 (11725865_a_at) / RFU CAMK2N1 (11719241_x_at) / Fold change /veh CAMK2N1 (11719241_x_at) / RFU C5orf56 (11738088_a_at) / Fold change /veh C5orf56 (11738088_a_at) / RFU OLFML3 (11715873_a_at) / Fold change /veh OLFML3 (11715873_a_at) / RFU LOC100653217 /// NTM (11731650_a_at) / Fold change /veh LOC100653217 /// NTM (11731650_a_at) / RFU MAPK11 (11762145_a_at) / Fold change /veh MAPK11 (11762145_a_at) / RFU FIZ1 (11724087_x_at) / Fold change /veh FIZ1 (11724087_x_at) / RFU OASL (11726364_x_at) / Fold change /veh OASL (11726364_x_at) / RFU SOX15 (11748057_x_at) / Fold change /veh SOX15 (11748057_x_at) / RFU CD79A (11719716_a_at) / Fold change /veh CD79A (11719716_a_at) / RFU HIST1H1D (11736915_at) / Fold change /veh HIST1H1D (11736915_at) / RFU CASKIN2 (11723855_a_at) / Fold change /veh CASKIN2 (11723855_a_at) / RFU LOC730098 (11760151_x_at) / Fold change /veh LOC730098 (11760151_x_at) / RFU OR4N2 (11742367_at) / Fold change /veh OR4N2 (11742367_at) / RFU PRRT2 (11749266_a_at) / Fold change /veh PRRT2 (11749266_a_at) / RFU SNX32 (11753110_a_at) / Fold change /veh SNX32 (11753110_a_at) / RFU CDHR5 (11726645_a_at) / Fold change /veh CDHR5 (11726645_a_at) / RFU RCAN1 (11760418_a_at) / Fold change /veh RCAN1 (11760418_a_at) / RFU FAM167A (11723789_a_at) / Fold change /veh FAM167A (11723789_a_at) / RFU FAM26E (11764081_at) / Fold change /veh FAM26E (11764081_at) / RFU ISYNA1 (11749810_s_at) / Fold change /veh ISYNA1 (11749810_s_at) / RFU ACY1 (11761880_at) / Fold change /veh ACY1 (11761880_at) / RFU 11764098_at / Fold change /veh 11764098_at / RFU SAMD14 (11745864_x_at) / Fold change /veh SAMD14 (11745864_x_at) / RFU NPB (11741838_a_at) / Fold change /veh NPB (11741838_a_at) / RFU TMPRSS6 (11731388_a_at) / Fold change /veh TMPRSS6 (11731388_a_at) / RFU KRTAP10-2 (11738614_at) / Fold change /veh KRTAP10-2 (11738614_at) / RFU ARHGAP8 /// PRR5-ARHGAP8 (11727945_x_at) / Fold change /veh ARHGAP8 /// PRR5-ARHGAP8 (11727945_x_at) / RFU KRTAP5-7 /// NADSYN1 (11734609_at) / Fold change /veh KRTAP5-7 /// NADSYN1 (11734609_at) / RFU RASL12 (11751679_a_at) / Fold change /veh RASL12 (11751679_a_at) / RFU CDKN2B (11736163_a_at) / Fold change /veh CDKN2B (11736163_a_at) / RFU PRF1 (11729649_at) / Fold change /veh PRF1 (11729649_at) / RFU, ZNF638 /// ZNF638-IT1 / Fold change vs veh, ZNF638 /// ZNF638-IT1 / RFU, PANK3 / Fold change vs veh, PANK3 / RFU, SH3YL1 / Fold change vs veh, SH3YL1 / RFU, ZEB2 / Fold change vs veh, ZEB2 / RFU, NRIP1 / Fold change vs veh, NRIP1 / RFU, PTTG1IP / Fold change vs veh, PTTG1IP / RFU, CAPN2 / Fold change vs veh, CAPN2 / RFU, MED14 / Fold change vs veh, MED14 / RFU, SNORA58 / Fold change vs veh, SNORA58 / RFU, C1orf63 / Fold change vs veh, C1orf63 / RFU, LRRFIP1 / Fold change vs veh, LRRFIP1 / RFU, NDUFAF7 / Fold change vs veh, NDUFAF7 / RFU, SLC12A2 / Fold change vs veh, SLC12A2 / RFU, IBTK / Fold change vs veh, IBTK / RFU, ESF1 / Fold change vs veh, ESF1 / Fold change vs veh, TMEM50B / RFU, TAOK1 / Fold change vs veh, TAOK1 / RFU, ACBD3 / Fold change vs veh, ACBD3 / RFU, TMA16 / Fold change vs veh, TMA16 / RFU, RWDD3 / Fold change vs veh, RWDD3 / RFU, BCAT1 / Fold change vs veh, BCAT1 / RFU, EDEM3 / Fold change vs veh, EDEM3 / RFU, TMEM33 / Fold change vs veh, TMEM33 / RFU, WDR75 / Fold change vs veh, WDR75 / RFU, AHCTF1 / Fold change vs veh, AHCTF1 / RFU, TFRC / Fold change vs veh, TFRC / RFU, ZDHHC17 / Fold change vs veh, ZDHHC17 / RFU, NOM1 / Fold change vs veh, NOM1 / RFU, ARL8B / Fold change vs veh, ARL8B / RFU, ZBTB11 / Fold change vs veh, ZBTB11 / RFU, TAMM41 / Fold change vs veh, TAMM41 / RFU, KIAA1704 /// LOC100996395 / Fold change vs veh, KIAA1704 /// LOC100996395 / RFU, ING1 / Fold change vs veh, ING1 / RFU, TRMT61B / Fold change vs veh, TRMT61B / RFU, FUBP3 / Fold change vs veh, FUBP3 / RFU, TP53 / Fold change vs veh, TP53 / RFU, TNKS2 / Fold change vs veh, TNKS2 / RFU, ZFP14 / Fold change vs veh, ZFP14 / RFU, ACTR2 / Fold change vs veh, ACTR2 / RFU, PPP3R1 / Fold change vs veh, PPP3R1 / RFU, PIK3R1 / Fold change vs veh, PIK3R1 / RFU, HNRNPA1 / Fold change vs veh, HNRNPA1 / RFU, RNF170 / Fold change vs veh, RNF170 / RFU, ZNF28 / Fold change vs veh, ZNF28 / RFU, RNGTT / Fold change vs veh, RNGTT / RFU, OGT / Fold change vs veh, OGT / RFU, BRD1 / Fold change vs veh, BRD1 / RFU, MARS / Fold change vs veh, MARS / RFU, ZNF655 / Fold change vs veh, ZNF655 / RFU, FAHD1 / Fold change vs veh, FAHD1 / RFU, BDP1 / Fold change vs veh, BDP1 / RFU, LRRCC1 / Fold change vs veh, LRRCC1 / RFU, ARID1A / Fold change vs veh, ARID1A / RFU, ZNF146 / Fold change vs veh, ZNF146 / RFU, ZNF330 / Fold change vs veh, ZNF330 / RFU, GPN3 / Fold change vs veh, GPN3 / RFU, C9orf123 / Fold change vs veh, C9orf123 / RFU, N4BP2L2 / Fold change vs veh, N4BP2L2 / RFU, ARFIP1 / Fold change vs veh, ARFIP1 / RFU, FAM179B / Fold change vs veh, FAM179B / RFU, BCL10 / Fold change vs veh, BCL10 / RFU, UHRF1BP1L / Fold change vs veh, UHRF1BP1L / RFU, BET1 / Fold change vs veh, BET1 / RFU, CNOT2 / Fold change vs veh, CNOT2 / RFU, ZNF268 / Fold change vs veh, ZNF268 / Fold change vs veh, ZNF507 / RFU, DGCR2 / Fold change vs veh, DGCR2 / RFU, WDSUB1 / Fold change vs veh, WDSUB1 / Fold change vs veh, HSP90B1 /// MIR3652 / RFU, ADSS / Fold change vs veh, ADSS / RFU, GK / Fold change vs veh, GK / RFU, ZNF148 / Fold change vs veh, ZNF148 / RFU, TAF9 / Fold change vs veh, TAF9 / RFU, SLC1A5 / Fold change vs veh, SLC1A5 / RFU, SLMO2 / Fold change vs veh, SLMO2 / RFU, ABCC4 / Fold change vs veh, ABCC4 / RFU, LOC101060439 /// RAP1B / Fold change vs veh, LOC101060439 /// RAP1B / RFU, RFX7 / Fold change vs veh, RFX7 / RFU, GTPBP10 / Fold change vs veh, GTPBP10 / RFU, CNEP1R1 / Fold change vs veh, CNEP1R1 / RFU, BIVM-ERCC5 /// ERCC5 / Fold change vs veh, BIVM-ERCC5 /// ERCC5 / RFU, ILF3 / Fold change vs veh, ILF3 / RFU 11762660_at / Fold change /veh 11762660_at / RFU VCAN (11757783_s_at) / Fold change /veh VCAN (11757783_s_at) / RFU DDX43 (11728927_at) / Fold change /veh DDX43 (11728927_at) / RFU KRT8 (11758188_x_at) / Fold change /veh KRT8 (11758188_x_at) / RFU NKD1 (11759106_at) / Fold change /veh NKD1 (11759106_at) / RFU SRD5A1 (11742802_a_at) / Fold change /veh SRD5A1 (11742802_a_at) / RFU TPSAB1 /// TPSB2 (11721975_s_at) / Fold change /veh TPSAB1 /// TPSB2 (11721975_s_at) / RFU GSTM3 (11746129_a_at) / Fold change /veh GSTM3 (11746129_a_at) / RFU IL23R (11737362_x_at) / Fold change /veh IL23R (11737362_x_at) / RFU TMEM51 (11727254_a_at) / Fold change /veh TMEM51 (11727254_a_at) / RFU PIWIL2 (11732686_x_at) / Fold change /veh PIWIL2 (11732686_x_at) / RFU ORM1 (11744905_x_at) / Fold change /veh ORM1 (11744905_x_at) / RFU CCDC152 (11743942_at) / Fold change /veh CCDC152 (11743942_at) / RFU ECM1 (11717891_a_at) / Fold change /veh ECM1 (11717891_a_at) / RFU IL23R (11748794_a_at) / Fold change /veh IL23R (11748794_a_at) / RFU TNFAIP8L3 (11732012_x_at) / Fold change /veh TNFAIP8L3 (11732012_x_at) / RFU MBOAT4 (11741988_at) / Fold change /veh MBOAT4 (11741988_at) / RFU 11764193_at / Fold change /veh 11764193_at / RFU TMEM53 (11763286_at) / Fold change /veh TMEM53 (11763286_at) / RFU MAGEB2 (11727129_at) / Fold change /veh MAGEB2 (11727129_at) / RFU TMEM200A (11744735_a_at) / Fold change /veh TMEM200A (11744735_a_at) / RFU CCDC152 (11751479_a_at) / Fold change /veh CCDC152 (11751479_a_at) / RFU FAM211A (11726209_a_at) / Fold change /veh FAM211A (11726209_a_at) / RFU RGS16 (11746705_a_at) / Fold change /veh RGS16 (11746705_a_at) / RFU VCAN (11755009_s_at) / Fold change /veh VCAN (11755009_s_at) / RFU RHOB (11743442_s_at) / Fold change /veh RHOB (11743442_s_at) / RFU RGS16 (11720943_a_at) / Fold change /veh RGS16 (11720943_a_at) / RFU RGS16 (11720944_at) / Fold change /veh RGS16 (11720944_at) / RFU, VPS4B / Fold change vs veh, VPS4B / RFU, CREB1 / Fold change vs veh, CREB1 / RFU, DNAJC13 / Fold change vs veh, DNAJC13 / RFU, GNAQ / Fold change vs veh, GNAQ / RFU, CDK5R1 / Fold change vs veh, CDK5R1 / RFU, ZRANB3 / Fold change vs veh, ZRANB3 / RFU, CUL4A / Fold change vs veh, CUL4A / RFU, CCNY / Fold change vs veh, CCNY / RFU, UFL1 / Fold change vs veh, UFL1 / RFU, COG3 / Fold change vs veh, COG3 / RFU, DIAPH2 / Fold change vs veh, DIAPH2 / RFU, SKA2 / Fold change vs veh, SKA2 / RFU, AFF3 / Fold change vs veh, AFF3 / RFU, LMF1 / Fold change vs veh, LMF1 / RFU, IPO11 / Fold change vs veh, IPO11 / RFU, DFFB / Fold change vs veh, DFFB / RFU, FOXP1 / Fold change vs veh, FOXP1 / RFU, CARD8 / Fold change vs veh, CARD8 / RFU, STRN3 / Fold change vs veh, STRN3 / RFU, ADK / Fold change vs veh, ADK / RFU, RASSF2 / Fold change vs veh, RASSF2 / RFU, WIPF1 / Fold change vs veh, WIPF1 / RFU, LARP1B / Fold change vs veh, LARP1B / RFU, RASA1 / Fold change vs veh, RASA1 / RFU, RB1 / Fold change vs veh, RB1 / RFU, PPFIA1 / Fold change vs veh, PPFIA1 / RFU, MAT2A / Fold change vs veh, MAT2A / RFU, CCT5 / Fold change vs veh, CCT5 / RFU, WDR92 / Fold change vs veh, WDR92 / RFU, CUX1 / Fold change vs veh, CUX1 / RFU, TTC7A / Fold change vs veh, TTC7A / RFU, TMEM135 / Fold change vs veh, TMEM135 / RFU, DEPTOR / Fold change vs veh, DEPTOR / RFU, CPM / Fold change vs veh, CPM / RFU, DNAJB6 / Fold change vs veh, DNAJB6 / RFU, CACNA2D3 / Fold change vs veh, CACNA2D3 / RFU, DTX4 / Fold change vs veh, DTX4 / RFU, TFCP2 / Fold change vs veh, TFCP2 / RFU, GMCL1 /// GMCL1P1 / Fold change vs veh, GMCL1 /// GMCL1P1 / RFU, AEBP2 / Fold change vs veh, AEBP2 / RFU, SNHG1 /// SNORD22 /// SNORD25 /// SNORD26 /// SNORD27 /// SNORD28 /// SNORD29 /// SNORD31 / Fold change vs veh, SNHG1 /// SNORD22 /// SNORD25 /// SNORD26 /// SNORD27 /// SNORD28 /// SNORD29 /// SNORD31 / Fold change (Aza/veh), C12orf56 (ProbeSet 11735607_a_at) / Fold change (ACY-1035/veh), C12orf56 (ProbeSet 11735607_a_at) / Fold change (Aza/veh), FGFR1OP (ProbeSet 11751329_s_at) / Fold change (ACY-1035/veh), FGFR1OP (ProbeSet 11751329_s_at) / Fold change (Aza/veh), VPS36 (ProbeSet 11739960_a_at) / Fold change (ACY-1035/veh), VPS36 (ProbeSet 11739960_a_at) / RFU SYPL1 (11715823_x_at) / Fold change /veh SYPL1 (11715823_x_at) / RFU IGFBP7 (11715501_s_at) / Fold change /veh IGFBP7 (11715501_s_at) / RFU REEP3 (11722064_at) / Fold change /veh REEP3 (11722064_at) / RFU IGLL1 (11728026_x_at) / Fold change /veh IGLL1 (11728026_x_at): dose or concentration left out as unconfirmed
Settings: MV-4-11 cells, 48 hours

Nc1ncn([C@@H]2O[C@H](CO)[C@@H](O)[C@H]2O)c(=O)n1 [azacitidine]
Fold change /veh SNX32 (11753110_a_at): 1.11
